# Assay results reported in patent US20220017833A1, “Methods and Compositions for Scavenging Sulfides from Hydrocarbon Fluids and Aqueous Streams” (Nexgen Oilfield Chemicals, LLC, priority 2019, published 2022).
# Tests used:
# [1] = Long Reaction Time Capacity Test
# From the text: (§1) Referring now to FIG. 1, therein is schematically depicted a sulfide scavenger testing system 100 comprising a gas source 2, a flow regulator 4, gas treatment vessel 6, and a sulfide measurement device 8. In one testing embodiment, gas (not shown) is flowed from gas source 2 via gas feed piping 10 into flow regulator 4, which regulates gas flow to gas treatment vessel 6 via regulated gas feed piping 12. The regulated gas flows into gas treatment vessel 6 via a bottom inlet 14 thereof, where it comes into contact with a volume of liquid 16 comprising a sulfide scavenger system (not separately labeled). The gas, having been treated by the liquid, flows out of a top end 18 of gas treatment vessel 6 and flows into sulfide measurement device 8 via treated gas outlet piping 20.
# In one embodiment, the gas contained in gas source 2 consists substantially of about 15% H2S, and about 3% CO2, with the remainder being Methane. In one embodiment, gas flow from the flow regulator 4 is controlled such that the gas is flowed into the gas treatment vessel 6 at a flow rate of 100 mL/min. up to 500 mL/min. In one embodiment, a gas sparging device, such as a fine pore frit (not shown), is utilized to better distribute the gas into the scavenger liquid. In one embodiment, the gas treatment vessel 6 contains about 20 g of a liquid H2S scavenger, such as one or more diaminols/diaminacetals in a chemical system as described above. In one aspect, to the extent possible, H2S and/or CO2 are scavenged from the gas by the scavenger and the treated (“sweet”) gas exits top end 18 of treatment vessel 6. In one embodiment, sulfide measurement device 8 monitors the concentration of H2S leaving treatment vessel 6. in the gas phase. In other embodiments (not shown), a CO2 measurement device may be similarly employed to monitor the concentration of CO2 leaving treatment vessel 6 in the gas phase.
# (§2) In one embodiment, gas is flowed through sulfide scavenger testing system 100 until the outlet H2S concentration reaches a 4,000 ppm target, at which point the test is concluded. This relative time duration before the target is reached is used to compare H2S scavenger capacity given the kinetics of each sulfide scavenger system. The longer the duration, the better the capacity.
# (§3) In this test, methane containing 15% H2S and 3% CO2 by weight is sparged via a fine pore frit (not shown) at 100 mL/min through a column of 20 g of scavenger solution (See FIG. 1). The fine bubbles produced rise slowly, providing plenty of time, plenty of surface area, and a short path through which the H2S must diffuse to the scavenger in the liquid 16. Detector 8 on the outlet line 20 is used to measure H2S concentration in the exiting gas. The times to first detection (FD), at a threshold of 15 ppm, and to complete breakthrough (BT), at the detector saturation of 4000 ppm (0.4%), are recorded. This test is designed to measure the effective scavenging capacity in applications with long contact times.
# Note that the true total capacity of a scavenger with infinite time to react is simply equal to the stoichiometry of the reaction—the moles of H2S consumable per mole of scavenging molecule, which can be calculated. This Long Reaction Time Capacity measurement falls short of that ultimate stoichiometric capacity and so is still reaction rate dependent, just less so than the Short Reaction Time Capacity Test.
# [2] = Short Reaction Time Capacity Test; conditions: for contribution to the BT capacity (coefficient of best fit equation) / contribution to the FD capacity (coefficient of best fit equation): Short Reaction Time Capacity Test, Table 2 compositions
# From the text: as §1
# In one embodiment, gas flow from the flow regulator 4 is controlled such that the gas is flowed into the gas treatment vessel 6 at a flow rate of 100 mL/min. up to 500 mL/min. In one embodiment, a gas sparging device, such as a fine pore frit (not shown), is utilized to better distribute the gas into the scavenger liquid. In one embodiment, the gas treatment vessel 6 contains about 20 g of a liquid H2S scavenger, such as one or more diaminols/diaminacetals in a chemical system as described above. In one aspect, to the extent possible, H2S and/or CO2 are scavenged from the gas by the scavenger and the treated (“sweet”) gas exits top end 18 of treatment vessel 6. In one embodiment, sulfide measurement device 8 monitors the concentration of H2S leaving treatment vessel 6. in the gas phase. In other embodiments (not shown), a CO2 measurement device may be similarly employed to monitor the concentration of CO2 leaving treatment vessel 6 in the gas phase.
# as §2
# as §3, with “The” for “In this test, methane containing 15% H2S and 3% CO2 by weight is sparged via a fine pore frit (not shown) at 100 mL/min through a column of 20 g of scavenger solution (See FIG. 1). The”
# This test is the same as the Long Reaction Time Capacity Test, but without the gas sparging device, so as to produce larger bubbles, and at a higher feed rate of 200 mL/min, after the first 8 minutes at 100 mL/min. The larger bubbles rise quickly through the liquid 16, providing little time, little surface area, and a long path through which the H2S must diffuse to the scavenger in the liquid. This test is designed to measure the effective scavenging capacity in applications with short contact times. It is far more reaction rate dependent than the Long Reaction Time Capacity and so is a more critical and differentiating test.
# With triazine, one H2S reacts twice with the same molecule of triazine, replacing one amine, so the rate is “first order”, meaning proportional to the concentration of triazine.
# [3] = octanol-water partition logarithm; source not stated; cited from earlier work
# [4] = Solution Homogeneity Test; type: physicochemical; conditions: Table 6, GID, water and alcohols, % composition
# From the text: In one aspect, as two-phase reaction products are problematic, scavenger system homogeneity is desired. The two phases could be emulsified or otherwise finely dispersed, but in practice, even fine, seemingly stable dispersions eventually separate or stratify in extended storage or critical use and are not robust enough for practical use. They are not allowed, for example, to be fed through capillaries for fear of plugging them. In this pass/fail test, a sample is held up for visual inspection in a backlit clear vial. A clear, single-phase, homogeneous solution is a pass. Anything else is a fail.
# [5] = 20 g test, Eq/test Triazine 0.068, GIDAc 0.185, GIDA 0.076
# [6] = 20 g test, Triazine 7.50 g + 12.50 g water, GIDAc 13.00 g as GID + 7.00 g MeOH, GIDA 6.68 g as GID, 3.32 g water, 8.00 g MeOH, 2.00 g BuOH
# [7] = 20 g test, Eq/test Triazine 0.068, GIDAc 0.157, GIDA 0.076 (7.50 g MeOH, 2.50 g BuOH)
# [8] = 20 g test, Triazine 7.50 g + 12.50 g water, GIDAc 11.00 g as GID, 6.00 g MeOH, 3.00 g BuOH, GIDA 6.68 g as GID, 3.32 g water, 7.50 g MeOH, 2.50 g BuOH
molecule,measurement,setting,value
"OCCN1CN(CCO)CN(CCO)C1 [Triazine, reference compound]",Min/Eq BT,[1]; [5],994 Min/Eq
same,Min/Eq FD,[1]; [5],965 Min/Eq
same,Min to BT,[1]; [6],68 min
same,Min to FD,[1]; [6],66 min
same,"molar capacity at long reaction times (comparison, accounting for molar concentration)",[1]; Graph 1 (FIG. 3),greater molar capacity than GIDAc at long reaction times
same,Min/Eq BT,[2]; [7],380 Min/Eq
same,Min/Eq FD,[2]; [7],365 Min/Eq
same,Min to BT,[2]; [8],26 min
same,Min to FD,[2]; [8],25 min
same,"molar capacity at short reaction times (comparison, accounting for molar concentration)",[2]; Graph 1 (FIG. 3),lower molar capacity at short reaction times
"CCCCC(CC)CO (stereo not shown) [2EHOH, 2-Ethylhexanol]",LogP,[3],2.8
"CC(O)CO (stereo not shown) [PG, Propylene Glycol]",LogP,[3],−1.3
"CC(C)N=CC=NC(C)C [GID, N,N′-di(propan-2-yl)ethane-1,2-diimine]",contribution to the BT capacity (coefficient of best fit equation),[2],102 minutes per equivalent
same,contribution to the FD capacity (coefficient of best fit equation),[2],92 minutes per equivalent
same,LogP,[3],2.3
"OCCOCCO [DEG, Diethylene Glycol]",Solution Homogeneity,[4],Fail
same,Solution Homogeneity,[4]; listed as diethylene glycol,do not work
same,LogP,[3],−1.5
"CC(=O)CC(C)C [MIBK, methyl isobutyl ketone]",contribution to the BT capacity (coefficient of best fit equation),[2],601 minutes per equivalent
same,contribution to the FD capacity (coefficient of best fit equation),[2],515 minutes per equivalent
"CCCCCCCO [n-C7OH, n-Heptanol]",LogP,[3],2.5
"CCCCCCCCO [n-C8OH, n-Octanol]",LogP,[3],3.0
"O [H2O, Water]",LogP,[3],−1.4
Hexylene Glycol [HG],LogP,[3],0.0
"OCCO [EG, Ethylene Glycol]",Solution Homogeneity,[4],Fail
same,Solution Homogeneity,[4]; listed as Ethylene glycol,do not work
same,LogP,[3],−1.7
"CO [MeOH, Methanol]",LogP,[3],−0.7
